Experimental data from patent US7109193B2, “Tricyclic diazepines tocolytic oxytocin receptor antagonists” (Wyeth, priority 2001, dated 2006).

biological target: T1, human oxytocin receptor (Homo sapiens, UniProt P30559); test: Oxytocin binding in Chinese Hamster Ovary cell membranes expressing human oxytocin receptors; conditions: 100 nM, CHO cell membranes, [3H]oxytocin, values without parentheses, read-out: OT % inhibition @ 100% nM
T1 construct: host or cells: CHO cells (pcDNA3.1 vector)
T1 sequence (P30559 1-389): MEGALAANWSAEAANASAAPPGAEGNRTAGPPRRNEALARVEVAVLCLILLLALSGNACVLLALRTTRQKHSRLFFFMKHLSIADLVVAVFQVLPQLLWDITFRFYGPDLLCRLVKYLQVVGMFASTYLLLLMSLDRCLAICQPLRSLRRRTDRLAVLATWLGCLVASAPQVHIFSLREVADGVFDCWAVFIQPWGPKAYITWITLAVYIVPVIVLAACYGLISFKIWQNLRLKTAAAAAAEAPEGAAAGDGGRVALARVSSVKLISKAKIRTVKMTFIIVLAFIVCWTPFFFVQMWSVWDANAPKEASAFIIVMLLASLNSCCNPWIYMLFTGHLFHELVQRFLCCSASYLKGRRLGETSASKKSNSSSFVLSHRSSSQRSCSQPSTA

In order of falling inhibition at 0.1 µM:
1. COc1cccc(-c2cc(OC)c(C(=O)N3Cc4ccc(C(=O)N(C)C5CCN(C)CC5)n4Cc4ccccc43)cc2Cl)c1 [Example 181, 10-[(6-Chloro-3,3′-dimethoxy[1,1′-biphenyl]-4-yl)carbonyl]-N-methyl-N-(1-methyl4-piperidinyl)-10,11-dihydro-5H-pyrrolo[2,1-c][1,4]benzodiazepine-3-carboxamide]  100%
2. COc1ccccc1-c1ccc(C(=O)N2Cc3ccc(C(=O)N(C)C4CCN(C)C4)n3Cc3ccccc32)cc1 (stereo not drawn) [Example 187, 10-[(2′-Methoxy[1,1′-biphenyl]-4-yl)carbonyl]-N-methyl-N-(1-methyl-3-pyrrolidinyl)-10,11-dihydro-5H-pyrrolo[2,1-c][1,4]benzodiazepine-3-carboxamide]  100%
3. COc1cccc(-c2cc(OC)c(C(=O)N3Cc4ccc(C(=O)N(C)C5CCN(C)C5)n4Cc4ccccc43)cc2Cl)c1 (stereo not drawn) [Example 191, 10-[(6-Chloro-3,3′-dimethoxy[1,1′-biphenyl]-4-yl)carbonyl]-N-methyl-N-(1-methyl-3-pyrrolidinyl)-10,11-dihydro-5H-pyrrolo[2,1-c][1,4]benzodiazepine-3-carboxamide]  100%
4. COc1cc(C(=O)N2Cc3ccc(C(=O)N(C)C4CCN(C)C4)n3Cc3ccccc32)ccc1-c1ccccc1C (stereo not drawn) [Example 189, 10-[(2-Methoxy-2′-methyl[1,1′-biphenyl]-4-yl)carbonyl]-N-methyl-N-(1-methyl-3-pyrrolidinyl)-10,11-dihydro-5H-pyrrolo[2,1-c][1,4]benzodiazepine-3-carboxamide]  99%
5. COc1cc(-c2ccccc2C)c(Cl)cc1C(=O)N1Cc2ccc(C(=O)N(C)C3CCN(C)C3)n2Cc2ccccc21 (stereo not drawn) [Example 190, 10-[(6-Chloro-3-methoxy-2′-methyl[1,1′-biphenyl]-4-yl)carbonyl]-N-methyl-N-(1-methyl-3-pyrrolidinyl)-10,11-dihydro-5H-pyrrolo[2,1-c][1,4]benzodiazepine-3-carboxamide]  99%
6. COc1cc(-c2ccccc2C)c(Cl)cc1C(=O)N1Cc2ccc(C(=O)N(C)C3CCN(C)CC3)n2Cc2ccccc21 [Example 180, 10-[(6-Chloro-3-methoxy-2′-methyl[1,1′-biphenyl]-4-yl)carbonyl]-N-methyl-N-(1-methyl-4-piperidinyl)-10,11-dihydro-5H-pyrrolo[2,1-c][1,4]benzodiazepine-3-carboxamide]  98%
7. COc1ccccc1-c1ccc(C(=O)N2Cc3ccc(C(=O)N(C)C4CCN(C)CC4)n3Cc3ccccc32)cc1OC [Example 183, 10-[(2,2′-Dimethoxy[1,1′-biphenyl]-4-yl)carbonyl]-N-methyl-N-(1-methyl-4-piperidinyl)-10,11-dihydro-5H-pyrrolo[2,1-c][1,4]benzodiazepine-3-carboxamide]  97%
8. COc1cccc(-c2ccc(C(=O)N3Cc4ccc(C(=O)N(C)C5CCN(C)C5)n4Cc4ccccc43)cc2C)c1 (stereo not drawn) [Example 186, 10-[(3′-Methoxy-2-methyl[1,1′-biphenyl]-4-yl)carbonyl]-N-methyl-N-(1-methyl-3-pyrrolidinyl)-10,11-dihydro-5H-pyrrolo[2,1-c][1,4]benzodiazepine-3-carboxamide]  97%
9. Cc1ccccc1-c1ccc(C(=O)N2Cc3ccc(C(=O)N(C)C4CCN(C)C4)n3Cc3ccccc32)cc1 (stereo not drawn) [Example 188, N-Methyl-10-[(2′-methyl[1,1′-biphenyl]-4-yl)carbonyl]-N-(1-methyl-3-pyrrolidinyl)-10,11-dihydro-5H-pyrrolo[2,1-c][1,4]benzodiazepine-3-carboxamide]  96%
10. COc1ccccc1-c1ccc(C(=O)N2Cc3ccc(C(=O)N(C)C4CCN(C)C4)n3Cc3ccccc32)cc1OC (stereo not drawn) [Example 193, 10-[(2,2′-Dimethoxy[1,1′-biphenyl]-4-yl)carbonyl]-N-methyl-N-(1-methyl-3-pyrrolidinyl)-10,11-dihydro-5H-pyrrolo[2,1-c][1,4]benzodiazepine-3-carboxamide]  96%
11. Cc1cc(C(=O)N2Cc3ccc(C(=O)N(C)C4CCN(C)C4)n3Cc3ccccc32)ccc1-c1ccccc1C(F)(F)F (stereo not drawn) [Example 194, N-Methyl-N-(1-methyl-3-pyrrolidinyl)-10-{[2-methyl-2′-(trifluoromethyl)[1,1′-biphenyl]-4-yl]carbonyl}-10,11-dihydro-5H-pyrrolo[2,1-c][1,4]benzodiazepine-3-carboxamide]  96%
12. COc1ccccc1-c1ccc(C(=O)N2Cc3ccc(C(=O)N(C)C4CCN(C)C4)n3Cc3ccccc32)cc1C (stereo not drawn) [Example 185, 10-[(2′-Methoxy-2-methyl[1,1′-biphenyl]-4-yl)carbonyl]-N-methyl-N-(1-methyl-3-pyrrolidinyl)-10,11-dihydro-5H-pyrrolo[2,1-c][1,4]benzodiazepine-3-carboxamide]  95%
13. Cc1ccccc1-c1ccc(C(=O)N2Cc3ccc(C(=O)N4CCN(CCN(C)C)CC4)n3Cc3ccccc32)cc1C [Example 198, {4-[2-(Dimethylamino)ethyl]-1-piperazinyl}{10-[(2,2′-dimethyl[1,1′-biphenyl]-4-yl)carbonyl]-10,11-dihydro-5H-pyrrolo[2,1-c][1,4]benzodiazepin-3-yl}methanone]  94%
14. Cc1ccccc1-c1ccc(C(=O)N2Cc3ccc(C(=O)N(C)C4CCN(C)CC4)n3Cc3ccccc32)cc1 [Example 178, N-Methyl-10-[(2′-methyl[1,1′-biphenyl]-4-yl)carbonyl]-N-(1-methyl-4-piperidinyl)-10,11-dihydro-5H-pyrrolo[2,1-c][1,4]benzodiazepine-3-carboxamide]  93%
15. COc1cc(C(=O)N2Cc3ccc(C(=O)N(C)C4CCN(C)CC4)n3Cc3ccccc32)ccc1-c1ccccc1C [Example 179, 10-[(2-Methoxy-2′-methyl[1,1′-biphenyl]-4-yl)carbonyl]-N-methyl-N-(1-methyl-4-piperidinyl)-10,11-dihydro-5H-pyrrolo[2,1-c][1,4]benzodiazepine-3-carboxamide]  93%
16. COc1cc(C(=O)N2Cc3ccc(C(=O)N(C)C4CCN(C)C4)n3Cc3ccccc32)ccc1-c1cccc2ccccc12 (stereo not drawn) [Example 192, 10-[3-Methoxy-4-(1-naphthyl)benzoyl]-N-methyl-N-(1-methyl-3-pyrrolidinyl)-10,11-dihydro-5H-pyrrolo[2,1-c][1,4]benzodiazepine-3-carboxamide]  91%
17. Cc1ccccc1-c1ccc(C(=O)N2Cc3ccc(C(=O)N4CCN(CCN(C)C)CC4)n3Cc3ccccc32)cc1 [Example 200, {4-[2-(Dimethylamino)ethyl]-1-piperazinyl}{10-[(2′-methyl[1,1′-biphenyl]-4-yl)carbonyl]-10,11-dihydro-5H-pyrrolo[2,1-c][1,4]benzodiazepin-3-yl}methanone]  87%
18. COc1cc(C(=O)N2Cc3ccc(C(=O)N4CCN(CCN(C)C)CC4)n3Cc3ccccc32)ccc1-c1ccccc1C [Example 201, {4-[2-(Dimethylamino)ethyl]-1-piperazinyl}{10-[(2-methoxy-2′-methyl[1,1′-biphenyl]-4-yl)carbonyl]-10,11-dihydro-5H-pyrrolo[2,1-c][1,4]benzodiazepin-3-yl}methanone]  86%
19. Cc1cc(C(=O)N2Cc3ccc(C(=O)N(C)C4CCN(C)CC4)n3Cc3ccccc32)ccc1-c1ccccc1C(F)(F)F [Example 184, N-Methyl-N-(1-methyl-4-piperidinyl)-10-{[2-methyl-2′-(trifluoromethyl)[1,1′-biphenyl]-4-yl]carbonyl}-10,11-dihydro-5H-pyrrolo[2,1-c][1,4]benzodiazepine-3-carboxamide]  83%
20. COc1cccc(-c2cc(OC)c(C(=O)N3Cc4ccc(C(=O)N5CCN(CCN(C)C)CC5)n4Cc4ccccc43)cc2Cl)c1 [Example 202, {10-[(6-Chloro-3,3′-dimethoxy[1,1′-biphenyl]-4-yl)carbonyl]-10,11-dihydro-5H-pyrrolo[2,1-c][1,4]benzodiazepin-3-yl}{4-[2-(dimethylamino)ethyl]-1-piperazinyl}methanone]  73%
21. COc1ccccc1-c1ccc(C(=O)N2Cc3ccc(C(=O)N4CCN(CCN(C)C)CC4)n3Cc3ccccc32)cc1OC [Example 204, {10-[(2,2′-Dimethoxy[1,1′-biphenyl]-4-yl)carbonyl]-10,11-dihydro-5H-pyrrolo[2,1-c][1,4]benzodiazepin-3-yl}{4-[2-(dimethylamino)ethyl]-1-piperazinyl}methanone]  72%
22. COc1cc(C(=O)N2Cc3ccc(C(=O)N(C)C4CCN(C)CC4)n3Cc3ccccc32)ccc1-c1cccc2ccccc12 [Example 182, 10-[3-Methoxy-4-(1-naphthyl)benzoyl]-N-methyl-N-(1-methyl-4-piperidinyl)-10,11-dihydro-5H-pyrrolo[2,1-c][1,4]benzodiazepine-3-carboxamide]  70%
23. COc1cc(C(=O)N2Cc3ccc(C(=O)N4CCN(CCN(C)C)CC4)n3Cc3ccccc32)ccc1-c1cccc2ccccc12 [Example 203, {4-[2-(Dimethylamino)ethyl]-1-piperazinyl}{10-[3-methoxy-4-(1-naphthyl)benzoyl]-10,11-dihydro-5H-pyrrolo[2,1-c][1,4]benzodiazepin-3-yl}methanone]  62%
24. CN(C)CCN1CCN(C(=O)c2ccc3n2Cc2ccccc2N(C(=O)c2ccc(-c4cccc5ccccc45)cc2Cl)C3)CC1 [Example 205, {10-[2-Chloro-4-(1-naphthyl)benzoyl]-10,11-dihydro-5H-pyrrolo[2,1-c][1,4]benzodiazepin-3-yl}{4-[2-(dimethylamino)ethyl]-1-piperazinyl}methanone]  24%
